Activity calls are given as the source filed them. The rule behind the calls is not given here.
Biological target: VIM-2 metallo-beta-lactamase (Pseudomonas aeruginosa) (UniProt Q932Y6)
Test: VIM-2 metallo-beta-lactamase inhibitor potency, dose response, biochemical, epi-absorbance, common IMP-1/VIM-2 hits (AID 2754)
Conditions: purified VIM-2 enzyme, absorbance substrate hydrolysis

| Structure (SMILES) | IC50 |
| --- | --- |
| O=c1cc(C(F)(F)F)c2cc3c4c(c2o1)CCCN4CCC3 | inactive |
| O=C1c2ccccc2-c2onc3ccc(NCCCn4ccnc4)c1c23 | 1.72 µM |
| O=C1c2cccc3c(O)ccc(c23)C(=O)N1c1ccc(Cl)cc1 | inactive |
| CCN(CC)c1ccc(/C=C/C(=O)c2ccc(Br)cc2)cc1 | 8.45 µM |
| O=C(Nc1ccc(C(F)(F)F)cc1)c1ccc(NC(=O)C2CCCO2)cc1 (stereo unspecified) | > 59.6 µM (inactive) |
| COCCCNc1c2c3c(cccc3[nH]c1=O)C(=O)c1ccccc1-2 | 1.84 µM |
| COc1cc(OC)c(-c2c3cc(O)c(=O)cc-3oc3cc(O)c(O)cc23)cc1OC | 5.11 µM |
| CCOc1ccc(-c2cc(C(=O)NCCCn3ccnc3)c3cc(Br)ccc3n2)cc1 | > 59.6 µM (inactive) |
| CCOC(=O)C1CCCN(c2ccc([N+](=O)[O-])c3nonc23)C1 (stereo unspecified) | inactive |
| COc1ccccc1N1N=C(c2ccc([N+](=O)[O-])cc2)CC1c1ccccc1 (stereo unspecified) | > 59.6 µM (inactive) |
| O=C(CCN1C(=O)/C(=C/c2ccc(Cl)cc2)SC1=S)NCCCn1ccnc1 | > 59.6 µM (inactive) |
| N#CC(C#N)=C1C=C2C=C(N3CCCCCC3)CCC2CC1 (stereo unspecified) | 2.51 µM |
| CC(C)n1cc(/C=C/c2cc[n+](C)cc2)c2ccccc21 | inactive |
| Cn1cc(/C=C(\C(=O)O)C(C(=O)O)=C2CCCCC2)c2ccccc21 | inactive |
| CCCCn1c(=O)[nH]c2nc3cc(N)ccc3nc2c1=O | inactive |
| CCN(CC)c1ccc2cc(C=O)c(=O)oc2c1 | inactive |
| Cc1ccc2[nH]cc(/C=C/c3cc[n+](C)cc3)c2c1 | inactive |
| Cc1nn(C)c(C)c1N1C(=O)c2cccc3c(N)ccc(c23)C1=O | 8.99 µM |
| N=C1/C(=C\c2coc3ccccc3c2=O)C(=O)N=C2SC=CN12 | inactive |
| CN1C(=O)/C(=C\c2ccc(N(C)C)cc2)OC1=S | > 59.6 µM (inactive) |
| CCOc1cc2c(cc1/C=C/c1noc(C)c1[N+](=O)[O-])OC(C)C2 (stereo unspecified) | > 59.6 µM (inactive) |
| Nc1ccc(-c2c3ccc(=O)cc-3oc3cc(O)ccc23)cc1C(=O)O | 4.47 µM |
| CCN(CC)c1ccc2cc(C(=O)NCc3ccc(F)cc3)c(=N)oc2c1 | > 59.6 µM (inactive) |
| CCCN1C(=O)c2cccc3c(N4CCCCC4)ccc(c23)C1=O | > 59.6 µM (inactive) |

| Structure (SMILES) | IC50 |
| --- | --- |
| COc1ccc2c(Cl)c(C(=O)NCCCn3ccnc3)sc2c1Cl | > 59.6 µM (inactive) |
| CN1CCN(C2=CC3=CC(=C(C#N)C#N)CCC3CC2)CC1 (stereo unspecified) | 3 µM |
| CN(C)/C=C1\C=C2C(=O)c3ccccc3N2C1=O | 0.894 µM |
| Nc1ccc2c3c(cccc13)C(=O)N(c1ccccc1)C2=O | inactive |
| Cc1cccc(N2C(=O)c3cccc4c(N)ccc(c34)C2=O)c1 | inactive |
| CCN1CCN(C2=CC3=CC(=C(C#N)C#N)CCC3CC2)CC1 (stereo unspecified) | 3.7 µM |
| COc1ccc(/C=C2/SC(c3ccc(C)cc3)=NC2=O)cc1OC | > 59.6 µM (inactive) |
| COC(=O)c1sccc1NC(=O)c1ccc(C#N)cc1 | > 59.6 µM (inactive) |
| O=c1ccc2c(-c3ccccc3)c3ccc(O)cc3oc-2c1 | 0.374 µM |
| O/C=c1\ccc2cccc3nc(C(F)(F)F)nc1c23 | 8.76 µM |
| O=C1CCN2C=Nc3cccc4ccc1c2c34 | 9.22 µM |
| CCCCC(Sc1nc(N)c(NC(=O)c2ccco2)c(=O)[nH]1)C(=O)O (stereo unspecified) | > 59.6 µM (inactive) |
| Cc1n[nH]c(C)c1N1C(=O)c2cccc3c(N4CCCCCC4)ccc(c23)C1=O | inactive |
| O=P(O)(O)c1cc(-c2ccccc2)oc1-c1ccccc1 | inactive |
| CCn1c(=S)sc2c(=O)n(CC(=O)Nc3ccccc3C(F)(F)F)c(C)nc21 | > 59.6 µM (inactive) |
| CCN(CC)c1ccc2c(-c3ccc(S(=O)(=O)O)cc3S(=O)(=O)[O-])c3ccc(=[N+](CC)CC)cc-3oc2c1 | > 59.6 µM (inactive) |
| CN1C(=O)c2cccc3c(N)ccc(c23)C1=O | 7.17 µM |
| Nc1cccc(N2C(=O)c3cccc4c(N)ccc(c34)C2=O)c1 | inactive |
| CCN1/C(=C/C=C/c2oc3ccc4ccccc4c3[n+]2CC)Oc2ccc3ccccc3c21 | > 59.6 µM (inactive) |
| COCCCn1c(=NC(=O)c2ccccc2)c(C#N)cc2c(=O)n3cccc(C)c3nc21 | > 59.6 µM (inactive) |
| O=[N+]([O-])c1ccc(N2CCCCCC2)c2nonc12 | inactive |
| COc1ccc(-c2occ(C(=O)O)c2C(=O)O)cc1 | inactive |
| CC(=O)Oc1ccc2c(c1)Oc1cc(OC(C)=O)ccc1C21OC(=O)c2ccccc21 | inactive |
| CCc1cc(=O)oc2cc(C)c(CN3CCCC3)c(O)c12 | 6.96 µM |

| Structure (SMILES) | IC50 |
| --- | --- |
| CNc1ccc2c3c(cccc13)C(=O)N(C)C2=O | 3.06 µM |
| CC(C)(C)c1ccc(-c2c(C(=O)O)c(C(=O)O)c3n2CSC3)cc1 | inactive |
| N#CC(C#N)=C1C=C2C=C(N3CCCCC3)CCC2CC1 (stereo unspecified) | 2.33 µM |
| COc1ccccc1-c1csc(-n2ncc(C#N)c2N)n1 | > 59.6 µM (inactive) |
| CCC(=C/c1sc2ccc3ccccc3c2[n+]1C)/C=C1\Sc2ccc3ccccc3c2N1C | > 59.6 µM (inactive) |
| CCCCCCn1c(=O)[nH]c2nc3cc(N)ccc3nc2c1=O | inactive |
| Cc1ccc(Cn2c(C(C)Nc3nc(-c4ccc(C)cc4)cs3)nc3cc(Cl)c(Cl)cc32)cc1 (stereo unspecified) | inactive |
| O=C(Nc1ccc2oc(-c3ccccc3F)nc2c1)c1ccc([N+](=O)[O-])o1 | > 59.6 µM (inactive) |
| O=C1c2cccc3c(O)ccc(c23)C(=O)N1Cc1ccco1 | inactive |
| CN(/N=C/c1ccc(-c2ccc([N+](=O)[O-])cc2)o1)c1ccccc1 | > 59.6 µM (inactive) |
| COc1ccc(-c2cc(=O)oc3c(C)c(OCC(=O)NCCCn4ccnc4)ccc23)cc1 | inactive |
| CCN(CC)c1ccc2cc(-c3nc4ccccc4[nH]3)c(=O)oc2c1 | 2.73 µM |
| COc1ccc(/C=C2\CCCc3c2nc2ccccc2c3C(=O)O)cc1OC | inactive |
| CCN(CC)C1=CC2=CC(=C(C#N)C#N)CCC2CC1 (stereo unspecified) | 2.4 µM |
| CC(=O)Nc1ccc(N2C(=O)c3cccc4c(O)ccc(c34)C2=O)cc1 | inactive |
| CCOc1ccc(/C=C2\CCCc3c2nc2ccccc2c3C(=O)O)cc1OC | inactive |
| CCCCN(C)C1=CC2=CC(=C(C#N)C#N)CCC2CC1 (stereo unspecified) | 4.07 µM |
| COc1cc(/C=C2/SC(=S)N(Cc3ccccc3)C2=O)cc(OC)c1O | > 59.6 µM (inactive) |
| Cc1nn(-c2ccccc2)c(Cl)c1/C=C(\CC(=O)O)c1nc2ccccc2s1 | 9.26 µM |
| O=C1/C(=C\c2cc(Cl)c(O)c(Cl)c2)SC(=S)N1Cc1ccccc1 | inactive |
| CC(C)C(CCN1C(=O)c2ccccc2C1=O)c1ccco1 (stereo unspecified) | inactive |
| CCOC(=O)c1c2c3c(cccc3n(C)c1=O)C(=O)c1ccccc1-2 | inactive |
| N#CC(C#N)=C1C=C2C=C(N3CCOCC3)CCC2CC1 (stereo unspecified) | 2.74 µM |
